# Measured values: patent US20110143948A1, “MOLECULAR SIGNATURES AND BIOMARKERS ASSOCIATED WITH MELANOMA AND METHODS OF USE THEREOF” (priority 2008, published 2011)
# Tested on: ncRNAs (SEQ ID NO 28-89)
# Assay: ncRNA arrays of melanocytes, keratinocytes, normal skin, melanoma cell lines and patient samples
# Set-up: species or system human
# Conditions: for ncRNA array expression, patient 2: melanoma patient 2 sample compared to normal skin; for ncRNA array expression, patient 3: melanoma patient 3 sample compared to normal skin; for ncRNA array expression, patient 4: melanoma patient 4 sample compared to normal skin; for ncRNA array expression, patient 5: melanoma patient 5 sample compared to normal skin; for ncRNA array expression, patient 6: melanoma patient 6 sample compared to normal skin; for ncRNA array expression, patient 7: melanoma patient 7 sample compared to normal skin; for ncRNA array expression, patient 8: melanoma patient 8 sample compared to normal skin; for ncRNA array expression, patient 9: melanoma patient 9 sample compared to normal skin; for ncRNA array expression, patient 10: melanoma patient 10 sample compared to normal skin; for ncRNA array expression, patient 19: melanoma patient 19 sample compared to normal skin; for ncRNA array expression, patient 20: melanoma patient 20 sample compared to normal skin; for ncRNA array expression, patient 21: melanoma patient 21 sample compared to normal skin; for ncRNA array expression, patient 22: melanoma patient 22 sample compared to normal skin; for ncRNA array expression, patient 23: melanoma patient 23 sample compared to normal skin; for ncRNA array expression, patient 24: melanoma patient 24 sample compared to normal skin; for ncRNA array expression, patient 25: melanoma patient 25 sample compared to normal skin; for ncRNA array expression, patient 26: melanoma patient 26 sample compared to normal skin; for ncRNA array expression, patient 27: melanoma patient 27 sample compared to normal skin; for ncRNA array expression, patient 28: melanoma patient 28 sample compared to normal skin; for ncRNA array expression, patient 29: melanoma patient 29 sample compared to normal skin; for ncRNA array expression, patient 30: melanoma patient 30 sample compared to normal skin
# How it was run: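 Differential ncRNA expression was defined against melanocytes or normal skin after subtracting keratinocyte-specific signals, with confirmation by qRT-PCR and Northern blot. Samples were melanoma cell lines, patient tumours, melanocytes, keratinocytes and normal skin, hybridised to a >10,000-probe (>200 nt) ncRNA array that also carries RefSeq mRNA probes.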
Substance,"ncRNA array expression, patient 2","ncRNA array expression, patient 3","ncRNA array expression, patient 4","ncRNA array expression, patient 5","ncRNA array expression, patient 6","ncRNA array expression, patient 7","ncRNA array expression, patient 8","ncRNA array expression, patient 9","ncRNA array expression, patient 10","ncRNA array expression, patient 19","ncRNA array expression, patient 20","ncRNA array expression, patient 21","ncRNA array expression, patient 22","ncRNA array expression, patient 23","ncRNA array expression, patient 24","ncRNA array expression, patient 25","ncRNA array expression, patient 26","ncRNA array expression, patient 27","ncRNA array expression, patient 28","ncRNA array expression, patient 29",also measured
"SEQ ID NO 64 (TTGCCTAGGAACAAAGAAGGCTTGTGAGGAGATCAAGGAACTTACATGAAATTGTAGGAA; listed as DNA, chemistry not given here; listed as Homo sapiens)",2.496,1.673,4.824,1.546,1.8,1.389,2.2638,1.339,2.481,0.2184,2.311,2.601,1.302,0.9911,2.424,2.502,2.729,2.69,2.932,1.473,"ncRNA array expression, patient 30: −2.097"
"SEQ ID NO 44 (AGCCAACTCACGCTTAGGGAGAACTCATACCGCCTAAATATAAAGGCAATTATATATATA; listed as DNA, chemistry not given here; listed as Homo sapiens)",−1.843,−1.705,−1.679,−1.807,−1.08,−1.932,−2.019,−1.861,−0.3103,−1.83,−1.651,−1.7,−1.029,−1.95,−1.768,−1.979,−1.501,−1.744,−1.679,−1.809,"ncRNA array expression, patient 30: 0.9814"
"SEQ ID NO 54 (TTTTTTTTCTTGTCCTATTACAACATTTTATAACCTTATGAATCAATGGATACTTTTATT; listed as DNA, chemistry not given here; listed as Homo sapiens)",0.357,2.627,3.179,0.2547,0.568,1.3,1.144,−0.1401,0.4363,3.034,1.876,1.299,−0.2466,0.7631,2.124,3.287,2.689,4.17,1.501,−0.1851,"ncRNA array expression, patient 30: −0.1125"
"SEQ ID NO 87 (GGGATATTTTTAAGGGGAAGGGGAAGGATAGAGAGAAAGTGCAGGCAGGGCTGGGGTCTG; listed as DNA, chemistry not given here; listed as Homo sapiens)",−2.131,−1.6373,−2.999,−2.972,−2.3216,−2.468,−2.76,−1.536,−1.881,−0.8262,−1.935,−2.079,−1.312,−2,−3.011,−2.33,−2.364,−2.214,−2.17,−2.373,"ncRNA array expression, patient 30: 0.7984"
"SEQ ID NO 53 (ATATATTTAGATAGTACTATGTTTCGTTTTCTTCCGATTTCAGGGATCCTTTTGTCTTAC; listed as DNA, chemistry not given here; listed as Homo sapiens)",−2.867,−2.306,−2.08,−2.02,−1.882,−2.068,−1.878,−2.195,−3.16,−2.319,−1.903,−2.124,−2.7031,−3.175,−1.827,−2.864,−3.105,−2.542,−1.905,−2.948,"ncRNA array expression, patient 30: −3.05"
"SEQ ID NO 35 (GTTTCCATTGAAGAATATTACGCTCGGGGACAAGCCAGGTGCACGACCAAAAATTTAAAA; DNA, backbone and methylation of C not given here; listed as Homo sapiens)",1.513,3.848,3.278,2.521,2.07,3.025,2.14,−0.1931,3.606,0.9237,2.507,2.618,0.8167,2.729,−2.783,1.774,3.301,3.86,4.108,3.127,"ncRNA array expression, patient 30: −0.8323"
"SEQ ID NO 66 (TCCTTTTTATCTTGCACTCAGATGGTATTTTTAGAGATGTTTCTTCAATCAAAACAAGAT; listed as DNA, chemistry not given here; listed as Homo sapiens)",2.553,2.044,2.799,1.983,2.127,2.319,2.869,1.498,1.587,0.7228,2.462,2.263,1.15,1.37,1.434,2.534,2.984,2.334,2.749,3.271,"ncRNA array expression, patient 30: −2.558"
"SEQ ID NO 86 (AAAATTATTTTATCTTAAGTTTCCATTTAGTTGATTAAAAATAGGGTTATGAATGTTAAA; listed as DNA, chemistry not given here; listed as Homo sapiens)",2.021,1.628,5.076,−0.09781,−0.05485,−0.1079,0.751,0.02401,1.097,1.409,0.8906,1.056,−0.01773,−0.00853,2.72,3.621,3.088,5.119,−0.07222,−0.07156,"ncRNA array expression, patient 30: 1.029"
